This note sets out measurements from ChEMBL document CHEMBL1201862, “PubChem BioAssay data set” (2004).

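A five-concentration, 48-hour dose response in 96-well plates underlies each endpoint, interpolated linearly between surrounding concentrations. GI50 is the concentration that inhibits growth by half.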 The source made the active and inactive calls. No stated cut-off is given here; in the data, active = GI50 up to about 1.1 µM and inactive = higher.

Holding throughout (assay): NCI anticancer screen, dose series, 48 h
For test [1], the system named is SNB-19.
Test [2] has as its system PC-3.
The test system of test [3] is TK-10.
In test [4] the test system is 786-0.
The subject of test [5] is COLO 205.
Test [6] concerns SF-268.
Test [7] relates to SN12C.
Test [8] has as its system T47D.
Test [9] concerns NCI-H522.
The test system of test [10] is RPMI-8226.
In test [11] the test system is SK-MEL-5.
In test [12] the test system is UACC-62.
In test [13] the test system is MCF7.
Test [14] has as its system A549.
For test [15], the system named is HCT-15.
The subject of test [16] is OVCAR-8.
The test system of test [17] is SF-295.
The test system of test [18] is HOP-92.
Test [19] relates to EKVX.
For test [20], the system named is HL-60.

In the case of `N#CC1=C(Nc2ccccc2)SC=C(c2ccccc2)N=C1NCc1ccccc1`, the GI50 in test [1] was > 100 µM (inactive); in [2] it was > 100 µM (inactive); in test [3], > 100 µM (inactive); in [4], > 100 µM (inactive); in test [5], 65.5 µM (inactive); in test [6] it was > 100 µM (inactive). For the same compound, the GI50 in [7] is > 100 µM (inactive); in test [8], > 100 µM (inactive); in test [9], 53.8 µM (inactive); in [10] it was 18.7 µM (inactive); in test [11], 54.5 µM (inactive); in [12], > 100 µM (inactive). Also, the GI50 was > 100 µM (inactive) in test [13], > 100 µM (inactive) in test [14], over 100 µM in test [15] and > 100 µM (inactive) in test [16].
As for `Cc1ccc(S(=O)(=O)n2cc(/C=C/C#N)c(-c3cn(S(=O)(=O)c4ccc(C)cc4)cc3-c3cn(S(=O)(=O)c4ccc(C)cc4)cc3/C=C/C#N)c2)cc1`, the GI50 in test [17] is 44.8 µM (inactive); in [1] it was > 100 µM (inactive); in test [2] it was 94.2 µM (inactive); in test [3] it was 40.4 µM (inactive); in [4], > 100 µM (inactive); in test [5], 58.7 µM (inactive). Also, the GI50 in [6] is > 100 µM (inactive); in [7], > 100 µM (inactive); in test [8] it was > 100 µM (inactive); in test [9], > 100 µM (inactive); in test [18], 43.6 µM (inactive); in test [10], 17.4 µM (inactive). Moreover, the GI50 in test [11] was > 100 µM (inactive); in test [12], > 100 µM (inactive); in test [15], over 100 µM; in test [16], > 100 µM (inactive); in [19], > 100 µM (inactive).
Consider `Nc1ccn(C2OC(COP(=O)(O)OCC3OC(n4cc(F)c(=O)[nH]c4=O)CC3O)C(O)C2O)c(=O)n1` (stereo unspecified), for which the GI50 in test [17] was 0.0453 µM (active); in test [1], 0.585 µM (active); in test [2], > 100 µM (inactive); in test [4], 1.33 µM (inactive); in test [5], 4.68 µM (inactive); in test [6], < 0.01 µM (active). For the same compound, the GI50 in [20] was 0.237 µM (active); in [7], 3.05 µM (inactive); in test [8], 4.47 µM (inactive); in test [9], 14.6 µM (inactive); in [18] it was 38 µM (inactive); in test [11], 0.605 µM (active). Further, the GI50 was 0.0925 µM (active) in test [12]; 0.0244 µM (active) in test [14]; 5.75 µM in test [15]; 1.37 µM (inactive) in test [16]; > 100 µM (inactive) in test [19].
Regarding `Clc1ccc(OCc2nn3c(CCc4nnc5sc(COc6ccc(Cl)cc6)nn45)nnc3s2)cc1`, the GI50 in test [17] was 24.5 µM (inactive); in test [2], 15.6 µM (inactive); in test [3] it was 26.4 µM (inactive); in test [4], 26.4 µM (inactive); in test [6], 5.61 µM (inactive); in test [20], 18.8 µM (inactive). Moreover, the GI50 was 22.4 µM (inactive) in test [8]; 5.62 µM (inactive) in [9]; 17.3 µM (inactive) in test [10]; 11.1 µM (inactive) in test [11]; 21.4 µM (inactive) in test [13]; 18.2 µM in [15]. The figures for the GI50 in test [16] and in [19] were 14.5 µM (inactive) and 27.7 µM (inactive), respectively.
Regarding `CC1=CC(=O)/C(=C/NC(=S)c2ccccc2)C(=O)O1`, the GI50 in [17], in test [1], in test [2], in test [3], in test [4] and in [5] was > 100 µM (inactive) in each case. Moreover, the GI50 in [7], in test [8], in test [18], in [11], in [12] and in [13] was > 100 µM (inactive) each time. The GI50 in test [14] is > 100 µM (inactive); in test [15], over 100 µM; in [16], > 100 µM (inactive); in [19], > 100 µM (inactive).
For the compound `Brc1ccc(-c2[nH]c3ccccc3c2/C=N\Nc2ccc(-c3nc4ccccc4[nH]3)cc2)cc1`, the GI50 in test [17], in test [1], in test [2], in [4], in [5] and in test [6] was < 0.01 µM (active) throughout. Besides, the GI50 is < 0.01 µM (active) in test [20]; < 0.01 µM (active) in test [7]; > 56.4 µM (inactive) in test [8]; < 0.01 µM (active) in test [9]; < 0.01 µM (active) in [10]; < 0.01 µM (active) in [11]. Moreover, the GI50 in test [12] is < 0.01 µM (active); in [13], < 0.0171 µM (active); in test [14], < 0.01 µM (active); in test [15], under 0.01 µM; in test [16], < 0.01 µM (active).
Take `O=S(=O)(O)c1ccc2c(/N=N/c3ccc(Cl)cc3)c(O)ccc2c1`: the GI50 in test [17], in test [1], in test [2], in [3], in test [4] and in test [5] was > 100 µM (inactive) each time. Further, the GI50 in [6] was > 100 µM (inactive); in test [7], > 100 µM (inactive); in [8] it was 89.3 µM (inactive); in [9], > 100 µM (inactive); in [18], > 100 µM (inactive); in [10] it was > 100 µM (inactive). Further, the GI50 in test [11] is > 100 µM (inactive); in test [12] it was > 100 µM (inactive); in test [14] it was > 100 µM (inactive); in test [15], over 100 µM; in test [16], > 100 µM (inactive); in test [19], > 100 µM (inactive).
In the case of `[O-][N+](CCO)(CCO)c1ncnc2[nH]cnc12`, the GI50 in test [17], in [1], in [2], in test [3], in test [4] and in test [5] was > 100 µM (inactive) in each case. In addition, the GI50 in [6], in test [7], in [8], in [9], in test [10] and in test [11] was > 100 µM (inactive) each time. Moreover, the GI50 in test [12] was > 100 µM (inactive); in [13], 76.6 µM (inactive); in test [14], > 100 µM (inactive); in [15] it was over 100 µM; in test [16] it was > 100 µM (inactive); in test [19], > 100 µM (inactive).
Regarding `CC1Oc2c(c(=O)oc3ccccc23)[C@@]1(C)CC1C[C@H](C)C(=O)O1` (stereo partly specified), the GI50 is 63 µM (inactive) in [17]; 62.4 µM (inactive) in test [1]; 40.8 µM (inactive) in [2]; > 100 µM (inactive) in test [3]; 16.4 µM (inactive) in [4]; 32.1 µM (inactive) in test [5]. Besides, the GI50 was 18.3 µM (inactive) in test [6]; 27.5 µM (inactive) in test [20]; > 10 µM (inactive) in [7]; 37.4 µM (inactive) in test [8]; 19.5 µM (inactive) in [9]; 33.3 µM (inactive) in test [10]. Also, the GI50 in [11] is 38.8 µM (inactive); in test [12] it was 19.1 µM (inactive); in test [13], 34.4 µM (inactive); in test [14], 87.7 µM (inactive); in test [15], 18.3 µM; in test [16], 30.5 µM (inactive). Besides, the GI50 in test [19] is > 100 µM (inactive).
With `Nc1ccccc1/C=C\c1ccccc1`, the GI50 in test [17], in test [1], in test [2], in test [3], in [4] and in [6] was > 100 µM (inactive) each time. The GI50 in test [20], in test [7], in [8], in [18], in [10] and in test [11] was > 100 µM (inactive) throughout. In addition, the GI50 in [12] was > 100 µM (inactive); in [13], > 100 µM (inactive); in test [14], > 100 µM (inactive); in test [15] it was over 100 µM; in test [16], > 100 µM (inactive); in test [19], > 100 µM (inactive).
For `N#CC1(C#N)C2CCCCC23OC(=N)C1(C#N)C(c1ccco1)O3` (stereo unspecified), the GI50 was > 100 µM (inactive) in test [17]; 31.6 µM (inactive) in [1]; 23 µM (inactive) in test [2]; 17.1 µM (inactive) in test [3]; 14.5 µM (inactive) in test [4]; 11.9 µM (inactive) in test [5]. The GI50 was 30.8 µM (inactive) in [6]; 14.8 µM (inactive) in test [7]; 17.6 µM (inactive) in [8]; 13.8 µM (inactive) in [18]; 15.5 µM (inactive) in [11]; 16.6 µM (inactive) in test [12]. Also, the GI50 in test [13] is 21.9 µM (inactive); in [14] it was > 100 µM (inactive); in [15] it was 9.23 µM; in test [16], 23.2 µM (inactive); in [19], 25.8 µM (inactive).
In the case of `COC(=O)CCNC(=O)OCc1ccccc1`, the GI50 in test [17], in test [1], in [2], in [3], in [4] and in [5] was > 100 µM (inactive) each time. For the same compound, the GI50 in [6], in test [20], in test [7], in test [8], in [9] and in test [10] was > 100 µM (inactive) throughout. The GI50 is > 100 µM (inactive) in [11]; > 100 µM (inactive) in test [12]; > 100 µM (inactive) in test [13]; > 100 µM (inactive) in test [14]; over 100 µM in [15]; > 100 µM (inactive) in [16]. Further, the GI50 in test [19] is > 100 µM (inactive).
